The text below walks through data of PMC3139784 (Bioorganic & medicinal chemistry, 2011).

SMILES strings stand for the structures.

The subject of series [1] is U373MG cells expressing hiCE. Put plainly: Growth inhibition assay with inhibitors and CPT-11. The conditions noted are these: U373MGhiCE cells. It is filed as cell-based.
The target of series [2] is hAChE (Homo sapiens, UniProt P22303). Put plainly: Inhibition of acetylcholinesterase. Type of series: biochemical.
For series [3], the target named is hBChE (Homo sapiens, UniProt P06276). Put plainly: Inhibition of butyrylcholinesterase. It is filed as biochemical.
Series [4] concerns mammalian CEs (hCE1, hiCE, rCE). Put plainly: CE inhibition across mammalian CEs. Type of series: biochemical. The conditions noted are these: hCE1, hiCE or rCE, o-NPA substrate.
A short description of series [5]: Spontaneous hydrolysis in buffered aqueous solution. Type of series: physicochemical. The conditions noted are these: within 5 mins of addition to buffered aqueous (pH 7.4) solution.
The subject of series [6] is CE. Put plainly: Ability of compounds to act as CE substrates. Type of series: biochemical. Particulars: 200 μM compound, 50 mM Hepes pH 7.4, data not shown.

Sequence of hAChE (P22303 32-614): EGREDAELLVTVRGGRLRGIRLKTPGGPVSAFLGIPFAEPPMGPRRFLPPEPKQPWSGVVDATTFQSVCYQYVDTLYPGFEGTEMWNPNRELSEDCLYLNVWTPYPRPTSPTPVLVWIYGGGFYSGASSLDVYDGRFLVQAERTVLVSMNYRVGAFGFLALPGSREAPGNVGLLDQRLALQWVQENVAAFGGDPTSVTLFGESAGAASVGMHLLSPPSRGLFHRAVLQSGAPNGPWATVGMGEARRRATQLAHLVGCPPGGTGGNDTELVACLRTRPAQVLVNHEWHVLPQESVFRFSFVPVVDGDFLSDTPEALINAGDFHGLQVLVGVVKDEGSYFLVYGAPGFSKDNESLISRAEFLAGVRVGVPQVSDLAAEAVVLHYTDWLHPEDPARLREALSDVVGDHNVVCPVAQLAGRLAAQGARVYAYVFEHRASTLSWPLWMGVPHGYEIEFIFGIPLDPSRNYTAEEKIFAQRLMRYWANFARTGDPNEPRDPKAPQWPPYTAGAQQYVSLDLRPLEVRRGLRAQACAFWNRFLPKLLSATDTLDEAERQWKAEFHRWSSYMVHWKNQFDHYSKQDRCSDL
Sequence of hBChE (P06276 29-602): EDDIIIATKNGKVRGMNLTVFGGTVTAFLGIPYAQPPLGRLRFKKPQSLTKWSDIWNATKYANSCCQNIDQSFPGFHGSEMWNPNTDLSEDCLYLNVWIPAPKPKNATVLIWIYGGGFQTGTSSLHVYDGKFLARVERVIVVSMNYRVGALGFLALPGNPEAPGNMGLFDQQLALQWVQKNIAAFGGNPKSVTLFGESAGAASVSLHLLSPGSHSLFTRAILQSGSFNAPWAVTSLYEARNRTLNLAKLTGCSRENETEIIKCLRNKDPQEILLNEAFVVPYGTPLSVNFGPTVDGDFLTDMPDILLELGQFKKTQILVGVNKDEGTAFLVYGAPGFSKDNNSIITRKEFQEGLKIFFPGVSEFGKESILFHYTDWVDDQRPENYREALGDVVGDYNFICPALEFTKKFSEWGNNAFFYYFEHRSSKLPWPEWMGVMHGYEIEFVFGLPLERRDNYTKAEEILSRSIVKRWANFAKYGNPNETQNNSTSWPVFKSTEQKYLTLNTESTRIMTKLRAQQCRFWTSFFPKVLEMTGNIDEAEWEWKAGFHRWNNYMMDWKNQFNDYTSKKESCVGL

Consider `O=C(C(=O)c1ccccc1)c1ccccc1` [Compound 1, Benzil, reference compound], for which the “Reduction of toxicity of CPT-11” value in series [1] (versus CPT-11 alone) is recorded as ~ 6 fold.

Turning to `O=C(Nc1ccccc1)C(=O)Nc1ccccc1` [Compound 2, Oxanilide], the “Activity towards hAChE (in words)” value in series [2] was “lacked activity”. In addition, the “Activity towards hBChE (in words)” value in series [3] is given as “lacked activity”. The “CE inhibition (in words)” value in series [4] is on record as “not an inhibitor”.

In the case of `O=C(Sc1ccccc1)C(=O)Sc1ccccc1` [Compound 3, S^1, S^2-Diphenyl ethane bis(thioate)], the Compound hydrolyzed spontaneously entry in series [5] is “greater than 40%”. Besides, the “CE inhibition (in words)” value in series [4] is given as “ineffective at enzyme inhibition”. Besides, the “Hydrolysis on addition of CE (in words)” value in series [6] is on record as “not enhanced”.

As for `O=C(Oc1ccccc1)C(=O)Oc1ccccc1` [Compound 4, Diphenyl ethanedioate], the Compound hydrolyzed spontaneously entry in series [5] was “greater than 40%”. Moreover, the “CE inhibition (in words)” value in series [4] is “ineffective at enzyme inhibition”. The “Hydrolysis on addition of CE (in words)” value in series [6] was “not enhanced”.

Turning to `CCCCCCC(=O)C(=O)CCCCCC` [Compound 13, Tetradecane-7,8-dione], the “Modulation of CPT-11 cytotoxicity (in words)” value in series [1] (10 μM inhibitor) is on record as “ineffective”.
